Experiments:
[1] = Solubility of nano-jar aggregates and polymer in solvents; format: physicochemical; settings: dark blue powder; for solubility in a wide variety of solvents: CCl4, CS2, aromatic hydrocarbons, ethers, ketones, esters, nitriles, amines, halogenated and nitro compounds, DMF and DMSO
Description: The unusually high solubility of (Bu4N)2[SO4^2−⊂{cis-Cu^II(μ-OH)(μ-pz)}6+12+10], and (Bu4N)2[SO4^2−⊂{cis-Cu^II(μ-OH)(μ-pz)}8+14+9]
Production of Host 1 and Host 2 via depolymerisation of [Cu^II(μ-OH)(μ-pz)]∞ includes the steps of combining aqueous solutions of CuSO4 and KOH/Hpz (1:2:1 molar ratio), which results in the formation of a blue-purple precipitate (Scheme 1). […] Elemental analysis results concur with the formula [Cu(OH)(pz)] (for C3H4CuN2O, M.W.=147.62, calculated/found: C, 24.4124.25%; H, 2.73/2.72%; N, 18.9818.40%). The structure of this intractable material likely consists of linear polymeric chains resulting from an all-trans arrangement of the pyrazole and OH moieties about the copper centers, similar to the ones found in [Cu^II(μ-pz)2]∞.
(Bu4N)HSO4 or (Bu4N)2SO4 can be added to a suspension of [Cu(μ-OH)(μ-pz)]∞ in THF or toluene, which leads to the immediate formation of a deep blue solution, and gradual dissolution of the solid. […] Hexane vapor diffusion to a toluene solution is then used to obtain dark blue single crystals in the form of blocks and thin plates.
In particular, one embodiment includes anion-encapsulating aggregates based on encapsulating host assemblies such as {cis-Cu^II(μ-OH)(μ-4-Mepz)}27 (“Host 13”), {cis-Cu^II(μ-OH)(μ-4-Mepz)}28(“Host 14”), {cis-Cu^II(μ-OH)(μ-4-Mepz)}29(“Host 15”), {cis-Cu^II(μ-OH)(μ-4-Mepz)}30(“Host 16”), {cis-Cu^II(μ-OH)(μ-4-Mepz)}31(“Host 17”), and {cis-Cu^II(μ-OH)(μ-4-Mepz)}32(“Host 18”). These alkyl ligand-bound pyrazole anion-encapsulating aggregates include 4-methylpyrazole (“4-Mepz”) and are somewhat soluble in pentane, hexane and cyclohexane. Hosts 13, 15, and 17 selectively encapsulate both carbonate and sulfate anions. Hosts 14 and 18 selectively encapsulate sulfate anions. Host 16 selectively encapsulates carbonate anions. These encapsulating host assemblies form anion-encapsulating aggregates which are capable of encapsulating anions present as contaminants in aqueous-hydrocarbon solvent mixtures, including without limitation in-process nuclear waste.
Another embodiment of an anion-encapsulating host containing a longer chain ligand-bound pyrazole is based on the formation of encapsulating host assemblies including 4-butylpyrazole. Anion-encapsulating aggregates incorporating 4-butylpyrazole are very soluble in pentane, hexane and cyclohexane, and are gradually less soluble in longer hydrocarbons (such as heptane, octane, decalin, and hexadecane). These anion-encapsulating aggregates can be used to encapsulate anions present as contaminants in aqueous-hydrocarbon solvent mixtures, such as those present in in-process nuclear waste.

[2] = Thermal stability of rings on recrystallization from boiling n-butanol; format: physicochemical; settings: recrystallization from boiling n-butanol (b.p.=118° C.)
Method: (Bu4N)2[SO4^2−⊂{cis-Cu^II(μ-OH)(μ-pz)}28] can also be crystallized from chlorobenzene, 1,2-dichloroethane or n-butylamine by hexane vapor diffusion, and from CH2Cl2 by Et2O vapor diffusion. SO4^2−⊂{cis-Cu^II(μ-OH)(μ-pz)}31 can also be crystallized as the Bu4N-salt from chlorobenzene. Moreover, crystals of (Bu4N)2[SO4^2−⊂{cis-Cu^II(μ-OH)(μ-pz)}28] were also obtained by recrystallization from boiling n-butanol (b.p.=118° C.), indicating stability of the rings at that temperature.

[3] = Preliminary selectivity study: self-assembly reaction with competing anions, sulfate determined gravimetrically as BaSO4; settings: for encapsulation of sulfate into the product: 1:54 molar ratio of sulfate and nitrate (or perchlorate) anions, gravimetric as BaSO4 after digestion with 6M HCl; for selectivity for sulfate ion in the presence of halides: in the presence of fluoride, chloride and bromide ions; for preference for sulfate anion over nitrate or perchlorate anions: preliminary selectivity studies
Description: A self-assembly reaction using a 1:54 molar ratio of sulfate and nitrate (or perchlorate) anions led to the quantitative encapsulation of sulfate into the product, as determined gravimetrically by precipitation as BaSO4 after digestion with 6M HCl. […] The selectivity for sulfate over nitrate, along with the stability at high (basic) pH is especially relevant for the sulfate-extraction efforts during nuclear waste treatment by vitrification, because it allows liquid-liquid extraction. The methods described herein also offer the benefit of recyclability of the sulfate-encapsulating assemblies. The encapsulating host assemblies can be recovered by stirring the dry residue obtained after BaSO4 precipitation (containing CuCl2, Hpz and Et3NHCl) with excess Et3N in DMF. Following such mixing, the characteristic absorption at 599 nm indicates the re-assembly of the [cis-Cu^II(μ-OH)(μ-pz)]n rings.

[4] = Liquid-liquid extraction of sulfate from aqueous nitrate solution at pH 14; settings: 5 M nitrate (NaNO3), 0.044 M sulfate (Na2SO4), 1.25 M NaOH (pH 14); sulfate to nitrate ratio 1:114
Description: In experiments, an aqueous solution containing 5 M nitrate (NaNO3), 0.044 M sulfate (Na2SO4) and 1.25 M NaOH (pH 14), in which the sulfate to nitrate ratio is 1:114 was combined together with an organic phase containing the stoichiometrically (based on the amount of sulfate) required amounts of nano-jar components.

Substance | solubility in a wide variety of solvents [1] | solubility in alcohols [1] | solubility in aliphatic hydrocarbons and water [1] | stability of the rings at temperature [2] | encapsulation of sulfate into the product [3] | selectivity for sulfate ion in the presence of halides [3] | preference for sulfate anion over nitrate or perchlorate anions [3] | extraction of sulfate anions from aqueous phase to organic phase [4]
(Bu4N)2[SO4^2−⊂{cis-Cu^II(μ-OH)(μ-pz)}6+12+10] | highly soluble | slightly soluble | insoluble | stability |  |  |  | 
(Bu4N)2[SO4^2−⊂{cis-Cu^II(μ-OH)(μ-pz)}8+14+9] | highly soluble | slightly soluble | insoluble |  |  |  |  | 
{cis-Cu^II(μ-OH)(μ-pz)}6+12+10 [Host 1] |  |  |  |  | quantitative | Partial selectivity | marked preference | effectively and selectively extracted
{cis-Cu^II(μ-OH)(μ-pz)}8+14+9 [Host 2] |  |  |  |  | quantitative | Partial selectivity | marked preference | effectively and selectively extracted

— US10087197B2, “Selective extraction of anions from solution” (Western Michigan University Research Foundation, priority 2012, dated 2018)
